These results are taken from patent publication US10568913B2, “Method for generating mature β-like cells” (The University of Western Australia, priority 2013, dated 2020).

Data set [1] deals with MIN6 cells. The experiment in a line: Glucose stimulated insulin secretion in highly passaged MIN6 cells. In kind it is cell-based, mouse. As to conditions: FIG. 20, 21. The protocol: The differentiated cells were washed twice with warm PBS. After pre-incubation with Krebs-Ringer buffer at 37° C. for 90 min, the cells were incubated at 37° C. for 60 min with basal D-glucose (2.75 mM) or stimulus D-glucose (27.5 mM). Then each conditioned medium was collected to determine the insulin concentration using an insulin ELISA kit (Mercodia AB, Uppsala, Sweden). MIN6 cells were routinely maintained in a published protocol which contains Dulbecco's modified Eagle's medium (DMEM) containing 25 mM glucose, supplemented with 10% fetal calf serum, 2 mM L-glutamine, 25 mM Hepes, and 285 μM 2-mercaptoethanol. MIN6 cells presented in this study were at passages 30-40 (low passage, LP) or passages 60-70 (high passage, HP). All assays used MIN6 grown to 70-80% confluence unless otherwise stated.

Data set [2] concerns differentiated β-like cells. The experiment in a line: Maturation of differentiated β-like cells, glucose stimulated insulin secretion. The class given is cell-based, mouse. The conditions noted are these: calcitriol 10 nM, 4 days; glucose 2.75 / 27.5 mM (FIG. 19). How it is done:
The differentiated cells were washed twice with warm PBS. After pre-incubation with Krebs-Ringer buffer at 37° C. for 90 min, the cells were incubated at 37° C. for 60 min with basal D-glucose (2.75 mM) or stimulus D-glucose (27.5 mM). Then each conditioned medium was collected to determine the insulin concentration using an insulin ELISA kit (Mercodia AB, Uppsala, Sweden). Nic-containing differentiation medium was removed from the differentiated β-like cells. A warmed maturation medium was added to the differentiated cells. The maturation medium is Dulbecco's Modified Eagle Medium (Invitrogen) with 5.75 mM D-glucose without nicotinamide (10 mM), 2% B27 (Invitrogen) and 100 μg/ml streptomycin and 100 units/ml penicillin supplemented with calcitriol (10 nM). Cultures were incubated in 10% CO2 90% air at 37° C., for 4 days.

The test system of data set [3] is NeuroD. The experiment in a line: qRT-PCR of genes in matured insulin-secreting cells. The class given is cell-based, mouse. The conditions noted are these: β-like cells treated with calcitriol. The protocol:
Real time quantitative RT-PCR analysis was carried out using power SYBR Green PCR Master Mix and SYBR® Green Cells-to-Ct™ Kits purchased from Applied Biosystems (Foster City, USA). cDNA was amplified by PCR: 95° C. for 10 min, followed by 40 cycles of 95° C. for 15 sec and 60° C. for 1 min. The number of cycles of threshold (Ct) was measured with an ABI Prism 7900HT Sequence Detection System (Applied Biosystems) or a Rotor-Gene RG-3000 (Corbet Research, Sydney, Australia). All quantifications (ΔCt) were normalized with the internal 18s rRNA level (2^−Δct). Nic-containing differentiation medium was removed from the differentiated β-like cells. A warmed maturation medium was added to the differentiated cells. The maturation medium is Dulbecco's Modified Eagle Medium (Invitrogen) with 5.75 mM D-glucose without nicotinamide (10 mM), 2% B27 (Invitrogen) and 100 μg/ml streptomycin and 100 units/ml penicillin supplemented with calcitriol (10 nM). Cultures were incubated in 10% CO2 90% air at 37° C., for 4 days.
(In general: In qPCR the cycle at which signal appears reflects the starting amount.)

Data set [4] concerns Ngn3+ islet progenitors. The experiment in a line: DsRed+ cell differentiation from purified Ngn3-GFP+ progenitors (Ngn3-GFP/RIP-DsRed mice). The class given is cell-based, mouse. The conditions noted are these: calcitriol 10 nM with or without Nic 10 mM, day 4 (FIG. 17). From the text:
Approximately 7,500 E15.5 [at which the number of Ngn3^+ progenitors is peaked] mouse fetuses from both MIPGFP and Ngn3-GPF/RIP-DsRed lines were used for enrichment/purification of Ngn3^+ progenitors. Mouse pancreases were dissected under a stereoscope (Olympus, Tokyo, Japan). Eleven human fetal pancreases were collected from 18-22 week-fetuses (Table 1) and minced. Both mouse and human pancreases were enzymatically dissociated into single cells under aseptic conditions. Rat anti-E-cadherin (E-cad, also known as CD324 or uvomorulin) monoclonal antibody IgG2a (Invitrogen, Carlsbad), Alexa Fluor 647 anti-E-cad (eBioscience), rat anti-integrin α6 subunit (α6, also known as CD49f) mAb IgG2a, phycoerythrin (PE) rat anti-human α6 (Becton Dickson Biosciences, San Jose), PE anti-mouse CD133 (also known as prominin I, eBioscience), biotin rabbit anti-rat immunoglobumins, allophycocyanin (APC) rat anti-mouse CD45 and APC rat anti-mouse TER119 and streptavidin APC-Cy7, streptavidin PE-Texas Red, streptavidin APC (BD Biosciences) or streptavidin Alexa Fluor 750 (Invitrogen), were used. After each incubation with antibodies, cells were washed twice with FACS buffer (0.1% bovine serum albumin in phosphate buffered saline) and finally re-suspended in this buffer containing 1 μg/ml propidium iodide (PI) or 4′,6-diamidino-2-phenylindole (DAPI) for sorting (FACSAria II, Becton Dickson Labware, Bedford). The purity of sorted cells was determined by post-sort analysis. Data presented represented cell samples with over 90% purity.
Sorted β-cell progenitor-enriched cells or Ngn3^+ β-cell progenitors were differentiated in 96-, 12- or 6-well plates (BD Labware). The basal differentiation medium is Dulbecco's Modified Eagle Medium (Invitrogen) with 5.75 or 27.5 mM D-glucose supplemented with 1% B27 (Invitrogen) and 100 μg/ml streptomycin and 100 units/ml penicillin. Growth factor-reduced Matrigel (200 μg/ml, BD Biosciences) was overlayed onto cells in the presence of various potential regulators. […]
The number of β-like cells was directly quantified under a fluorescence microscope. […]

For data set [5] the following is noted: versus calcitriol; cited from earlier work.

With `C=C1/C(=C\C=C2/CCC[C@]3(C)[C@@H]([C@H](C)CCCC(C)(C)O)CC[C@@H]23)C[C@@H](O)C[C@@H]1O` [Calcitriol, 1, 25 (OH)2 vitamin D3], the “glucose stimulated insulin secretion (GSIS) in dedifferentiated, highly passaged MIN6 cells” value in data set [1] was “partially restores GSIS”. For the same compound, the “maturation of differentiated β-like cells (GSIS)” value in data set [2] is listed as “promoted the maturation”. Further, the NeuroD expression result in data set [3] is on record as “further up-regulated”. For the same compound, the “β-cell differentiation of Ngn3+ islet progenitors (number of DsRed+ cells)” value in data set [4] is listed as “does not promote β-cell differentiation”.

Turning to `C[C@H](CC#CC(C)(C)O)[C@H]1CC[C@@H]2/C(=C/C=C3C[C@@H](O)C[C@H](O)C3)CCC[C@@]21C` [Inecalcitol, 19-nor-14-epi-23-yne calcitriol], in data set [5], the “hypercalcaemic effect, fold less” value is 480 fold.
